Calls of active or inactive are those of the source. The calls are words filed in the database; no cut-off is given here.
Experiments:
MDA-MB-231 [1] = assay: Antiproliferative activity against human MDA-MB-231 cells measured after 24 hrs by MTT assay; type: functional, cell-based; conditions: MDA-MB-231, 24 h
[2] = target: T1, Protein deacetylase HDAC6 (Homo sapiens, UniProt Q9UBN7); assay: Inhibition of recombinant human His-tagged HDAC6 expressed in baculovirus infected insect cells using Ac-Leu-Gly-Lys(Ac)-AMC as substrate measured after 30 mins by fluorescence assay
T1 sequence (Q9UBN7 whole entry): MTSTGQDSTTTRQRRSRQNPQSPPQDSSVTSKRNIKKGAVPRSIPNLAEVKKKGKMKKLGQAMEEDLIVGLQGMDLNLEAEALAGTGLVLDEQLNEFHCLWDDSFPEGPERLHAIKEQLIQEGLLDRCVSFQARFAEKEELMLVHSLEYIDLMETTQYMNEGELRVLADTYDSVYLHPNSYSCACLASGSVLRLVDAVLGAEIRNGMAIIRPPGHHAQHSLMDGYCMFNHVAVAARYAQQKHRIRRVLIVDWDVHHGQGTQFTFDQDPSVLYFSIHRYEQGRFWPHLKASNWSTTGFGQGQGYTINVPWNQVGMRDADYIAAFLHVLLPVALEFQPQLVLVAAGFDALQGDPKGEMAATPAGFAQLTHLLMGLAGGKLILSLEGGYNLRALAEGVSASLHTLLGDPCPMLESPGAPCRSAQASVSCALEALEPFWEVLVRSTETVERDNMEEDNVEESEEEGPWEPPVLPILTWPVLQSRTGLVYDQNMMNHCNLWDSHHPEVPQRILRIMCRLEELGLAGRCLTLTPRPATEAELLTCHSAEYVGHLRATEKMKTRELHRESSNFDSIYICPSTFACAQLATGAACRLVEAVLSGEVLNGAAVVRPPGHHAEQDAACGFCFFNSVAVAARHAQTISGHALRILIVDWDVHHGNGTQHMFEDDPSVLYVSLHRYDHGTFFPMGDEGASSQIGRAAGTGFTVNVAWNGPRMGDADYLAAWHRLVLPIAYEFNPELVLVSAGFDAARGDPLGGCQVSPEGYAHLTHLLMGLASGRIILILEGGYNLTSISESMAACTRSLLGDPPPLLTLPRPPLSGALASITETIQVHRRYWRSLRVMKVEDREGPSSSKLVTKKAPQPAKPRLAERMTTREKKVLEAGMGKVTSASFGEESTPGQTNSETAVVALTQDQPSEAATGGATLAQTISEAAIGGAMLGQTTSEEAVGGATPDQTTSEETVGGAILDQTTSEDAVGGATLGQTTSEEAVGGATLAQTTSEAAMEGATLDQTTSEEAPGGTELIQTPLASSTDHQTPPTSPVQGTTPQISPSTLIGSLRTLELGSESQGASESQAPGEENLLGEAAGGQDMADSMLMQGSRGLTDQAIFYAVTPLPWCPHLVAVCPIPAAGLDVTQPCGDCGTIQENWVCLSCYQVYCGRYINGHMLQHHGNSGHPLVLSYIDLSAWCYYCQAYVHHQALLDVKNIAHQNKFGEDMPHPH

MDA-MB-231 [3] = assay: Antimetastatic activity against CM-Dil labeled human MDA-MB-231 cells xenografted in Zebrafish AB assessed as reduction in tail metastasis at 2.5 ug/ml measured after 5 days by fluorescence microscopic analysis; type: functional, cell-based; conditions: dose 2.5 µg/ml, time 5.0 day
[4] = Half life in Beagle dog at 20 mg/kg, po by LC-MS/MS analysis; type: ADME, organism-based, Canis lupus familiaris; conditions: in vivo
[5] = Cmax in Beagle dog at 20 mg/kg, po by LC-MS/MS analysis; type: ADME, organism-based, Canis lupus familiaris; set-up: route oral, dose 20 mg/kg; conditions: in vivo
[6] = Tmax in Beagle dog at 20 mg/kg, po by LC-MS/MS analysis; type: ADME, organism-based, Canis lupus familiaris; conditions: in vivo
[7] = AUC (0 to t) in Beagle dog at 20 mg/kg, po by LC-MS/MS analysis; type: ADME, organism-based, Canis lupus familiaris; set-up: dose 20 mg/kg; conditions: in vivo
[8] = AUC (0 to infinity) in Beagle dog at 20 mg/kg, po by LC-MS/MS analysis; type: ADME, organism-based, Canis lupus familiaris; set-up: route oral, time infinity, dose 20 mg/kg; conditions: in vivo
Histone deacetylase 5 = Histone deacetylase 5 (Homo sapiens, UniProt Q9UQL6); assay: Inhibition of recombinant human full-length N-terminal GST-tagged HDAC5 expressed in baculovirus infected Sf9 insect cells using AcLeu-Gly-Lys(Tfa)-AMC as substrate measured after 30 mins by fluorescence assay
[9] = target: Histone deacetylase 3/NCoR1 (Homo sapiens, UniProt O15379); assay: Inhibition of recombinant human GST-fused HDAC3/NCOR1 (397 to 503 residues) expressed in baculovirus infected insect cells using Ac-Leu-Gly-Lys(Ac)-AMC as substrate measured after 30 mins by fluorescence assay
Histone deacetylase 7 = target: T2, Histone deacetylase 7 (Homo sapiens, UniProt Q8WUI4); assay: Inhibition of HDAC7 (unknown origin) using AcLeu-Gly-Lys(Tfa)-AMC as substrate measured after 30 mins by fluorescence assay
T2 sequence (Q8WUI4 whole entry): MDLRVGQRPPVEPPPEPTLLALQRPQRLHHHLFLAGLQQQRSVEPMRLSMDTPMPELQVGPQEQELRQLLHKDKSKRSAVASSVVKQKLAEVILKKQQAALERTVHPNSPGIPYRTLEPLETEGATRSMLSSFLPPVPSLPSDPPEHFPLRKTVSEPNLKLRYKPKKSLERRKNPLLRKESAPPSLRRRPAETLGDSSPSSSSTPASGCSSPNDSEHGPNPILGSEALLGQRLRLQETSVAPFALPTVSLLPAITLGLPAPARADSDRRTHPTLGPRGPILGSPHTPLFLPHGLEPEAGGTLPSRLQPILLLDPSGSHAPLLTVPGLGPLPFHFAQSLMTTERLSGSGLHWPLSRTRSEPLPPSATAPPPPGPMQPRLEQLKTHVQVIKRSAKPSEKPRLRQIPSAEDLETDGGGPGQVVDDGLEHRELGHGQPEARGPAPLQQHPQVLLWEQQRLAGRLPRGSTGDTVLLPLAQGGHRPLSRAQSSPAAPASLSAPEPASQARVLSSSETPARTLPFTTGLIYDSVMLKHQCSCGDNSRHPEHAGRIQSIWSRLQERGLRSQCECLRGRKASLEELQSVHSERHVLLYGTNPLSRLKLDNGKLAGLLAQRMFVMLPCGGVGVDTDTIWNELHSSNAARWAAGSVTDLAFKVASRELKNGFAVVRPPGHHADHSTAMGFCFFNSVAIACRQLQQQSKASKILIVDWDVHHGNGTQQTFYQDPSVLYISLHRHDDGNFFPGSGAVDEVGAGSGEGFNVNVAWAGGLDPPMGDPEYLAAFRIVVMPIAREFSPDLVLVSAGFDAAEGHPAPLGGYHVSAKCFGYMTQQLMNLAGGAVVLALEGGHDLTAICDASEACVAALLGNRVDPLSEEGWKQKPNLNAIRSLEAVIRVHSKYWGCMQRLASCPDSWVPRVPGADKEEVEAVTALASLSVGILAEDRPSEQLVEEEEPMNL

Histone deacetylase 9 = Histone deacetylase 9 (Homo sapiens, UniProt Q9UKV0); assay: Inhibition of recombinant human full-length N-terminal GST-tagged HDAC9 (1 to 1069 residues) expressed in wheat germ expression system using Ac-Leu-Gly-Lys(Tfa)-AMC as substrate measured after 30 mins by fluorescence assay
Histone deacetylase 4 = Histone deacetylase 4 (Homo sapiens, UniProt P56524); assay: Inhibition of recombinant human N-terminal GST-tagged HDAC4 (627 to end residues) expressed in baculovirus infected Sf9 insect cells using AcLeu-Gly-Lys(Tfa)-AMC as substrate measured after 30 mins by fluorescence assay
Histone deacetylase 11 = target: T3, Histone deacetylase 11 (Homo sapiens, UniProt Q96DB2); assay: Inhibition of recombinant human N-terminal His-tagged HDAC11 expressed in baculovirus infected Sf9 insect cells using Ac-Arg-His-Lys(Ac)-Lys(Ac)-AMC as substrate measured after 30 mins by fluorescence assay
T3 sequence (Q96DB2 whole entry): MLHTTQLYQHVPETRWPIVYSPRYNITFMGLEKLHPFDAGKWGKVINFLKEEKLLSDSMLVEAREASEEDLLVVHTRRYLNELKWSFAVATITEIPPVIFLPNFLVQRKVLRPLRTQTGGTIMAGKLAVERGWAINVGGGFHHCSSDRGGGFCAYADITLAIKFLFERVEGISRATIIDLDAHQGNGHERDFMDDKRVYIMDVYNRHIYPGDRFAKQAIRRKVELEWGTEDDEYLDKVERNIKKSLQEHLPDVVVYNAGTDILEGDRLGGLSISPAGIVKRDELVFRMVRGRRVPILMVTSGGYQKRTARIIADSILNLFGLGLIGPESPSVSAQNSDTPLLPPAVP

Histone deacetylase 1 = Histone deacetylase 1 (Homo sapiens, UniProt Q13547); assay: Inhibition of recombinant human His-tagged HDAC1 expressed in insect cells using Ac-Leu-Gly-Lys(Ac)-AMC as substrate measured after 30 mins by fluorescence assay
Histone deacetylase 8 = target: T4, Histone deacetylase 8 (Homo sapiens, UniProt Q9BY41); assay: Inhibition of recombinant human full-length C-terminal His-tagged HDAC8 expressed in baculovirus infected Sf9 insect cells using Ac-Leu-Gly-Lys(Tfa)-AMC as substrate measured after 30 mins by fluorescence assay
T4 sequence (Q9BY41 whole entry): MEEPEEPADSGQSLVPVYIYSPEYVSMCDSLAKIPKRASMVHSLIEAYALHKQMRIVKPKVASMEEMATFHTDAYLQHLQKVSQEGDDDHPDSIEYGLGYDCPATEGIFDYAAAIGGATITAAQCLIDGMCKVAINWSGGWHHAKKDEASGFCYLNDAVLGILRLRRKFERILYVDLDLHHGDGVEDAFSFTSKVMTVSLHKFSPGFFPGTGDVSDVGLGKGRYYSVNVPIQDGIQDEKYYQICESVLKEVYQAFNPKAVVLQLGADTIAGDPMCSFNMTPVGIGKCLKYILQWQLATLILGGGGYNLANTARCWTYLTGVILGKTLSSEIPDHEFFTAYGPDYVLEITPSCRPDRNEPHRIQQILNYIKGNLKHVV

Histone deacetylase 2 = Histone deacetylase 2 (Homo sapiens, UniProt Q92769); assay: Inhibition of human full-length C-terminal FLAG-tagged HDAC2 expressed in baculovirus infected Sf9 insect cells using Ac-Leu-Gly-Lys(Ac)-AMC as substrate measured after 30 mins by fluorescence assay; type: cell-based
Histone deacetylase 2, sequence (Q92769 whole entry): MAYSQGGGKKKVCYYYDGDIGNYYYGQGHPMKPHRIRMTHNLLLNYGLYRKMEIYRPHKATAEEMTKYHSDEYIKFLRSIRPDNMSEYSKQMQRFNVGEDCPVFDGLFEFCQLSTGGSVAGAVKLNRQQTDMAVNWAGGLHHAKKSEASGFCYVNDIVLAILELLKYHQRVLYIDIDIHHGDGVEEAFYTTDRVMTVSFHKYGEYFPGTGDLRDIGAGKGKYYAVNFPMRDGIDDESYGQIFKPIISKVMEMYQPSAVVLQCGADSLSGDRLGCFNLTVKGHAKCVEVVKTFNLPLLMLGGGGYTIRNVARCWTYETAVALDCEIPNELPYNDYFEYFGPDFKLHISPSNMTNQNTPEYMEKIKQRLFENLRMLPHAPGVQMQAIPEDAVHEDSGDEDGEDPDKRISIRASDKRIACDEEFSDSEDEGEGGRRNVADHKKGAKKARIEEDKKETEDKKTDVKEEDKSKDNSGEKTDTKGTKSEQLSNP

Histone deacetylase 3/NCoR1, sequence (O15379 whole entry, the tested form may be a part): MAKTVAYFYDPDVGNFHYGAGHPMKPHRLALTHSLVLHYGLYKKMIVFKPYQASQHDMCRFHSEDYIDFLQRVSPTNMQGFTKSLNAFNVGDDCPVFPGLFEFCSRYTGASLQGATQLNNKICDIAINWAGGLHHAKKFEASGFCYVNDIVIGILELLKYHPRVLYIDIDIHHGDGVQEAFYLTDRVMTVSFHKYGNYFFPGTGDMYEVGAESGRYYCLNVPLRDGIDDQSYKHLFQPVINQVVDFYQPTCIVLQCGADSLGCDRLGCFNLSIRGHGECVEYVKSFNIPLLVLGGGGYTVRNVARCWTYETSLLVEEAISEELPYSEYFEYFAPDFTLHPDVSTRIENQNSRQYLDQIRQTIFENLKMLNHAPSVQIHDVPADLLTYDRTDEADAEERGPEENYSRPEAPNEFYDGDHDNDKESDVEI
Histone deacetylase 3/NCoR1, sequence (O75376 whole entry, further chain, the tested form may be a part): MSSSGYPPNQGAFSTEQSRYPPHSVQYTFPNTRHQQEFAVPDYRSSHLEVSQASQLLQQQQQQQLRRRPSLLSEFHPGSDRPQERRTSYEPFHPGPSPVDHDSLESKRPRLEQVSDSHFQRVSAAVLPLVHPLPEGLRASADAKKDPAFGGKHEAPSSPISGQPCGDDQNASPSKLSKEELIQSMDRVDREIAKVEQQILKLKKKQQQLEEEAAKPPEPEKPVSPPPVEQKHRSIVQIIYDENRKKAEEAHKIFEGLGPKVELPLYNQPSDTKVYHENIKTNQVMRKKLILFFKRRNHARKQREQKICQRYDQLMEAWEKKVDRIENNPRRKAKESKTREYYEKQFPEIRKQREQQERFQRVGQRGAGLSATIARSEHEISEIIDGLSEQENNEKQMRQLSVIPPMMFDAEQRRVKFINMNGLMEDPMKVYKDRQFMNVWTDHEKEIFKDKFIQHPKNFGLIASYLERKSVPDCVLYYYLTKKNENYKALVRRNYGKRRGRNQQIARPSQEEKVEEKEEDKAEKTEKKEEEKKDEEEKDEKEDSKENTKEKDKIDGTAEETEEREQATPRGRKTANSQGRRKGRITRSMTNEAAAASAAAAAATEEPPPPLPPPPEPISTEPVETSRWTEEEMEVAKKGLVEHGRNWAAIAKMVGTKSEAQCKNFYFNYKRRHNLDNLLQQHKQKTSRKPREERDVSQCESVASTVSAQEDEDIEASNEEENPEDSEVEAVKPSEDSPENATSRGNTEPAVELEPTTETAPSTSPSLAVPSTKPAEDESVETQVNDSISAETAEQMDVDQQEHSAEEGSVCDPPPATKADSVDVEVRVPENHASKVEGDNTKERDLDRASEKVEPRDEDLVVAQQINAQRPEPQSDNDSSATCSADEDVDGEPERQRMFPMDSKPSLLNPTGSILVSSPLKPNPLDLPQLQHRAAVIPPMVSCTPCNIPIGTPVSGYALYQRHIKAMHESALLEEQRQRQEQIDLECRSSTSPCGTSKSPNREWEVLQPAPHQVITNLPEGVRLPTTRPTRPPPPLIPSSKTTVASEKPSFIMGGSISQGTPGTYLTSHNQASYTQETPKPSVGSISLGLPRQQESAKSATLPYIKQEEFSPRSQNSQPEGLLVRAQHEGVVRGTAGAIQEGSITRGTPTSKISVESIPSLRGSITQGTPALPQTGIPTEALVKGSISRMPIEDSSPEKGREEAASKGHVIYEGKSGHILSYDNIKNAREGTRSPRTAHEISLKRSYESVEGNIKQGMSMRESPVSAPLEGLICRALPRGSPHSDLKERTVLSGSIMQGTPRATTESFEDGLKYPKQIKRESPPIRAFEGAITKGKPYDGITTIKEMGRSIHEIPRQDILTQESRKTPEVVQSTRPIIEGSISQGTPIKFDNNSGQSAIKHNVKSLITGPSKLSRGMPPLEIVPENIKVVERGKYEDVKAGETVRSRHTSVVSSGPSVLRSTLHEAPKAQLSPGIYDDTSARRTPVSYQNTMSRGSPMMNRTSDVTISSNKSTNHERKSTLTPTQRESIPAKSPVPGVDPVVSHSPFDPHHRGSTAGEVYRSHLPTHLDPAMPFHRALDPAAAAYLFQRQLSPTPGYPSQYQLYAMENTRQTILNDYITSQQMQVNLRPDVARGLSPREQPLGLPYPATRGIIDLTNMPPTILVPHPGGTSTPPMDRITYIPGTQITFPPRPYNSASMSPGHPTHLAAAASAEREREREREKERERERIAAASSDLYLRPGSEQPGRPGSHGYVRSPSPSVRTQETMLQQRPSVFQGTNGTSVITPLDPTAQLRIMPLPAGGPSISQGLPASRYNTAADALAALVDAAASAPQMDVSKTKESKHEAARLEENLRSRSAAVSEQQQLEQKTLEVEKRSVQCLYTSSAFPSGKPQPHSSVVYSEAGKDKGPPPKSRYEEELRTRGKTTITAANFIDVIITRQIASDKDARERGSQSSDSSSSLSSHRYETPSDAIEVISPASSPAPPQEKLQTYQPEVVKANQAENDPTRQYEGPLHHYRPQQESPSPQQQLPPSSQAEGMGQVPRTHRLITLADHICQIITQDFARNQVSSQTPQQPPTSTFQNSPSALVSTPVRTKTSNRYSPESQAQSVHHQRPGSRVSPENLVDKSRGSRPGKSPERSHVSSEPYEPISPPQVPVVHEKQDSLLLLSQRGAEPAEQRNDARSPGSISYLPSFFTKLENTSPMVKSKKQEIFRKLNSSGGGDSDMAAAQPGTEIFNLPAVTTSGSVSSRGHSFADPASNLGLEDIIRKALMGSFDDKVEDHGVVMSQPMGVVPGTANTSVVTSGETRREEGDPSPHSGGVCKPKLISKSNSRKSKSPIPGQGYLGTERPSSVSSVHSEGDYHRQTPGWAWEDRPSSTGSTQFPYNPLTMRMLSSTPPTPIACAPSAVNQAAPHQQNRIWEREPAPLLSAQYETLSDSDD
Histone deacetylase 1, sequence (Q13547 whole entry): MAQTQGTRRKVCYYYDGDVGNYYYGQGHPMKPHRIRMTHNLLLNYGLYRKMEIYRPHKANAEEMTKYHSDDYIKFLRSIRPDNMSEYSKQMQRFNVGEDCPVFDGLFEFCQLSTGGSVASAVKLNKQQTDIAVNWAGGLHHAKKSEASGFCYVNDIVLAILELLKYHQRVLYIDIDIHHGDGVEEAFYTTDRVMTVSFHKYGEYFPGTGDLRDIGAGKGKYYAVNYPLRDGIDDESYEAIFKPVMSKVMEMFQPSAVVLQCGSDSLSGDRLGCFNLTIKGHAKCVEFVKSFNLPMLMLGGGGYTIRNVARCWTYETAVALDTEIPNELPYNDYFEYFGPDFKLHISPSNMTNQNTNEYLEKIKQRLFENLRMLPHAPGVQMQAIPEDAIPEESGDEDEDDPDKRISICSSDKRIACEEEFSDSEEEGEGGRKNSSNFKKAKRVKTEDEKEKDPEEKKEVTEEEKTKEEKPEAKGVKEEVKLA
Histone deacetylase 5, sequence (Q9UQL6 whole entry, the tested form may be a part): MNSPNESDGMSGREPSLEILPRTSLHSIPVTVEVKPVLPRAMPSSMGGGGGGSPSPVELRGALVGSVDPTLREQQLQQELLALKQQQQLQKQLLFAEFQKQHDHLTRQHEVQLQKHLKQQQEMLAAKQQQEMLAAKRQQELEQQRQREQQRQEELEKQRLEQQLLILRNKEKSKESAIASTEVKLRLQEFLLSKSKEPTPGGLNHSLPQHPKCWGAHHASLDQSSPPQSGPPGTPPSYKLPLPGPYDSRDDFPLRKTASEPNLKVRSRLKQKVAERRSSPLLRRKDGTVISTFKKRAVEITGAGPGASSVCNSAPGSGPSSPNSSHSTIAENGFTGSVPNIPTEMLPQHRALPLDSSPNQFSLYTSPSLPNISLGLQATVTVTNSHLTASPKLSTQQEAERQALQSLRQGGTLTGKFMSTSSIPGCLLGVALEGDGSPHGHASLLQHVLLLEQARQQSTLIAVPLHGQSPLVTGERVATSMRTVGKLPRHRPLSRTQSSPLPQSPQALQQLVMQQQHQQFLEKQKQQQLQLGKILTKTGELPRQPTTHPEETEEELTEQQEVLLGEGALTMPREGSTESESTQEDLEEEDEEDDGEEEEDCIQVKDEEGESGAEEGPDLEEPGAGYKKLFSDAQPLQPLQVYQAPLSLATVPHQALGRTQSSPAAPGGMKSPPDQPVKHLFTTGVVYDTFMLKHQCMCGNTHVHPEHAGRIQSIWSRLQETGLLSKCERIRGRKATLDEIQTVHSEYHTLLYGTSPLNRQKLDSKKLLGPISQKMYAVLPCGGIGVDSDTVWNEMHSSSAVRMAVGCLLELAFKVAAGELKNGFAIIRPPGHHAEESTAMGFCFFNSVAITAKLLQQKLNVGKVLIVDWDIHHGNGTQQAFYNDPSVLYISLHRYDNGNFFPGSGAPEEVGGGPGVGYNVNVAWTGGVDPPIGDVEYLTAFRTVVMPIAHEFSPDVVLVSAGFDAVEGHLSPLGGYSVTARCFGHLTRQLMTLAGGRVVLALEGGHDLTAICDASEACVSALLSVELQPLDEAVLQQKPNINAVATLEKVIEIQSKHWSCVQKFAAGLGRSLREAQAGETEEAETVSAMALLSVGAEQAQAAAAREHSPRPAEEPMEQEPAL

SMILES	IC50 (MDA-MB-231 [1]) [µM]	IC50 [2] [µM]	also measured
COc1cc(OC)c2c(N3CCS(=O)(=O)CC3)nc(-c3cc(C)c(OCCCCC(=O)NO)c(C)c3)nc2c1	12.1	0.13	–
COc1cc(OC)c2c(N3CCOC[C@H]3C)nc(-c3cc(C)c(OCC(=O)NO)c(C)c3)nc2c1	31.3	> 20	–
COc1cc(OC)c2c(N3CCOCC3)nc(-c3cc(C)c(OCCCC(=O)NO)c(C)c3)nc2c1	11.4	0.35	–
COc1cc(OC)c2c(N3CCSCC3)nc(-c3cc(C)c(OCC(=O)NO)c(C)c3)nc2c1	37.2	> 20	–
COc1cc(OC)c2c(N3CCS(=O)(=O)CC3)nc(-c3cc(C)c(OCC(=O)NO)c(C)c3)nc2c1	> 50	> 20	–
COc1cc(OC)c2c(N3CCOC[C@@H]3C)nc(-c3cc(C)c(OCC(=O)NO)c(C)c3)nc2c1	29.4	> 20	–
COc1cc(OC)c2c(N3CCS(=O)(=O)CC3)nc(-c3cc(C)c(OCCCC(=O)NO)c(C)c3)nc2c1	18.4	0.85	–
COc1cc(OC)c2c(N3CCOC[C@H]3C)nc(-c3cc(C)c(OCCCC(=O)NO)c(C)c3)nc2c1	11.3	0.33	–
O=C(CCCCCCC(=O)Nc1ccccc1)NO [VORINOSTAT]	–	–	Activity (MDA-MB-231 [3]): Active; t1/2 [4]: 19.2 min; Cmax [5]: 118.93 ng/mL; Tmax [6]: 9 min; AUC(0-t) [7]: 965 ng·h/mL; AUC [8]: 968.32 ng·h/mL
COc1cc(OC)c2c(N3CCN(C)CC3)nc(-c3cc(C)c(OCCCCCC(=O)NO)c(C)c3)nc2c1	–	–	IC50 (Histone deacetylase 5): > 1 µM; IC50 [9]: 0.0792 µM; IC50 (Histone deacetylase 7): > 1 µM; t1/2 [4]: 74.4 min; Cmax [5]: 120.36 ng/mL; IC50 (Histone deacetylase 9): > 1 µM; IC50 (Histone deacetylase 4): > 1 µM; IC50 (Histone deacetylase 11): > 1 µM; Tmax [6]: 47.4 min; IC50 (Histone deacetylase 1): 0.0869 µM; IC50 (Histone deacetylase 8): 0.378 µM; AUC(0-t) [7]: 1280 ng·h/mL; IC50 (Histone deacetylase 2): 0.0973 µM; AUC [8]: 1289.4 ng·h/mL
COc1cc(OC)c2c(N3CCSCC3)nc(-c3cc(C)c(OCCCC(=O)NO)c(C)c3)nc2c1	15.7	0.42	–
COc1cc(OC)c2c(N3CCOCC3)nc(-c3cc(C)c(OCC(=O)NO)c(C)c3)nc2c1	35.9	> 20	–

Second part, led by results:

IC50 (MDA-MB-231 [1]) [µM]	IC50 [2] [µM]	SMILES	also measured
8.35	0.22	COc1cc(OC)c2c(N3CCOC[C@H]3C)nc(-c3cc(C)c(OCCCCC(=O)NO)c(C)c3)nc2c1	–
8.89	0.129	COc1cc(OC)c2c(N3CCSCC3)nc(-c3cc(C)c(OCCCCCC(=O)NO)c(C)c3)nc2c1	–
3.79	0.0985	COc1cc(OC)c2c(N3CCOC[C@@H]3C)nc(-c3cc(C)c(OCCCCCC(=O)NO)c(C)c3)nc2c1	–
6.6	0.19	COc1cc(OC)c2c(N3CCOC[C@@H]3C)nc(-c3cc(C)c(OCCCCC(=O)NO)c(C)c3)nc2c1	–
10.8	0.36	COc1cc(OC)c2c(N3CCOC[C@@H]3C)nc(-c3cc(C)c(OCCCC(=O)NO)c(C)c3)nc2c1	–
7.21	0.21	COc1cc(OC)c2c(N3CCOCC3)nc(-c3cc(C)c(OCCCCC(=O)NO)c(C)c3)nc2c1	–
5.54	0.119	COc1cc(OC)c2c(N3CCOCC3)nc(-c3cc(C)c(OCCCCCC(=O)NO)c(C)c3)nc2c1	–
5.97	0.102	COc1cc(OC)c2c(N3CCOC[C@H]3C)nc(-c3cc(C)c(OCCCCCC(=O)NO)c(C)c3)nc2c1	–
9.83	0.29	COc1cc(OC)c2c(N3CCSCC3)nc(-c3cc(C)c(OCCCCC(=O)NO)c(C)c3)nc2c1	–
